Read-outs that look alike come from different tables or passages of the source.
How the values were obtained:
[1] = target: T1, human GLP-1 receptor (hGLP-1R) (Homo sapiens, UniProt P43220); experiment: [125I]-GLP-1 binding, SPA with membranes of HEK293 cells expressing hGLP-1R; conditions: human GLP-1R; geometric mean (SEM, n); read-out: Binding Affinity Ki, nM (SEM, n) hGLP-1R
T1 construct: expressed in transfected cells; crude membranes

[2] = target: T2, human GIP receptor (hGIPR) (Homo sapiens, UniProt P48546); experiment: [125I]-GIP binding, SPA with membranes of CHO cells expressing hGIPR
T2 construct: expressed in transfected cells; crude membranes
T2 sequence (P48546 22-466): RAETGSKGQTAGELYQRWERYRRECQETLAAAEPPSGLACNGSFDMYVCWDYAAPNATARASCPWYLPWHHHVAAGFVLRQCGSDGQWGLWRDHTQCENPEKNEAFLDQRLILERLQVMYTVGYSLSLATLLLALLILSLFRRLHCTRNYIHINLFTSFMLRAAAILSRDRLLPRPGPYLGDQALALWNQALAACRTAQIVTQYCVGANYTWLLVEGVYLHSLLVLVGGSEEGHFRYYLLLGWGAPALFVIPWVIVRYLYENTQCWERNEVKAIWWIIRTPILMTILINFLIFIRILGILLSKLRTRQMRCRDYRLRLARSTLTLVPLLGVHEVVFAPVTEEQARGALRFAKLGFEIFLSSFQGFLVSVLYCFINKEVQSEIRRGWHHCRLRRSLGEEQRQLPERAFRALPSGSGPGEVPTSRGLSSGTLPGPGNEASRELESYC

hGIPR = target: T3, hGIPR (Homo sapiens, UniProt P48546); experiment: Functional cAMP formation (HTRF) in HEK-293 clonal cells expressing hGIPR, 0.1% bovine casein, without or with 1.0% human serum albumin; format: cell-based; conditions: for EC50: geometric mean
T3 construct: expressed in transfected cells
T3 sequence (P48546 22-466): T2 sequence (P48546 22-466)
Method in brief: (§1)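 Cells were stimulated with peptide for 30 min at 37° C, then lysed in buffer carrying cAMP-d2 and anti-cAMP Eu3+-cryptate for a competitive HTRF read after at least 60 min at room temperature. The 665/620 nm ratio was converted to nM cAMP against a standard curve.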

hGCGR = target: T4, hGCGR (Homo sapiens, UniProt P47871); experiment: Functional cAMP formation (HTRF) in HEK-293 clonal cells expressing hGCGR, 0.1% bovine casein, without or with 1.0% human serum albumin; format: cell-based
T4 construct: expressed in transfected cells
Method in brief: as §1

hGLP-1R = hGLP-1R (Homo sapiens, UniProt P43220); experiment: Functional cAMP formation (HTRF) in HEK-293 clonal cells expressing hGLP-1R, 0.1% bovine casein, without or with 1.0% human serum albumin; format: cell-based; design: expressed in transfected cells; conditions: for Emax: percent of maximal response to GLP-1(7-36)NH2; for EC50: hGLP-1R EC50, nM (SEM, n), cAMP, 37° C.
Method in brief: as §1

T4 sequence (P47871 26-477): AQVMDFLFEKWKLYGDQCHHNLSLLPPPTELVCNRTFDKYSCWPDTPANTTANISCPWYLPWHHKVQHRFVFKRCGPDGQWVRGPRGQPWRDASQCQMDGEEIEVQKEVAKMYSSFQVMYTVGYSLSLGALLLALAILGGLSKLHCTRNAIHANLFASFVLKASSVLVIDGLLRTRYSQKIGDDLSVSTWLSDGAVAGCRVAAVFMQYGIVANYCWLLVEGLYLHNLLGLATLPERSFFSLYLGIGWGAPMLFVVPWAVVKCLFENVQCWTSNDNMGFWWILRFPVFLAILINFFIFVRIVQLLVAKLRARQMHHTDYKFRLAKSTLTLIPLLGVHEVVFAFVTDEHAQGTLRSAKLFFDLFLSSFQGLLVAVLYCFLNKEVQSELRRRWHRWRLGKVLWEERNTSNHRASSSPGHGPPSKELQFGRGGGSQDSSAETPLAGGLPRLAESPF
hGLP-1R, sequence (P43220 24-463): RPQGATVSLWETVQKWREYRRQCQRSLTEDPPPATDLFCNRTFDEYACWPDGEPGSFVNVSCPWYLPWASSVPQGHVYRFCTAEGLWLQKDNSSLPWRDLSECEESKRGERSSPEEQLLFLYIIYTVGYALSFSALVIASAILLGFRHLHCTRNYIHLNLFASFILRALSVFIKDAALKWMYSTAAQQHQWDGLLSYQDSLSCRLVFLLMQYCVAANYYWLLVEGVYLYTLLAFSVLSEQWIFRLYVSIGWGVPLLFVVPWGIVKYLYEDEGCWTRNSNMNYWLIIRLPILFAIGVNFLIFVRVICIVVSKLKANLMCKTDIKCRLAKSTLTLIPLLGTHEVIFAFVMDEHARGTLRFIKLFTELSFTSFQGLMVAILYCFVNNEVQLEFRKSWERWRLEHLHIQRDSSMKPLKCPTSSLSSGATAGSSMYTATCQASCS
T1 sequence (P43220 24-463): as above

| SMILES | Ki [1] [nM] | Ki ([2]; human GIPR, geometric mean (SEM, n), read-out: Binding Affinity Ki, nM (SEM, n) hGIPR) [nM] | EC50 (hGIPR; 0.1% bovine casein and 1.0% human serum albumin, 37° C., read-out: hGIPR EC50, nM (SEM, n)) [nM] | Emax (hGIPR; HEK293, 0.1% bovine casein and 1.0% human serum albumin, 37° C., percent of maximal response to GIP(1-42)NH2, read-out: hGIPR Emax, % ± SEM) [%] | Emax (hGIPR; HEK293, percent of maximal response to GIP(1-42)NH2, 37° C., 0.1% bovine casein, arithmetic mean, read-out: hGIPR Emax, % ± SEM) [%] | EC50 (hGIPR; cAMP, incubated at 37° C., 0.1% bovine casein (no human serum albumin), read-out: hGIPR EC50, nM (SEM, n)) [nM] | EC50 (hGCGR; 0.1% bovine casein and 1.0% human serum albumin, 37° C., geometric mean, read-out: hGCGR EC50, nM (SEM, n)) [nM] | EC50 (hGCGR; cAMP, incubated at 37° C., 0.1% bovine casein (no human serum albumin), geometric mean, read-out: hGCGR EC50, nM (SEM, n)) [nM] | Ki [2] [nM] | Emax (hGIPR; HEK293, read-out: hGIPR Emax, % ± SEM, cAMP, 37° C., 0.1% bovine casein and 1.0% human serum albumin, percent of maximal response to GIP(1-42)NH2) [%] | Emax (hGIPR; HEK293, read-out: hGIPR Emax, % ± SEM, cAMP, 37° C., 0.1% bovine casein, percent of maximal response to GIP(1-42)NH2, arithmetic mean) [%] | EC50 (hGIPR; hGIPR EC50, nM (SEM, n), cAMP, 37° C., 0.1% bovine casein (no human serum albumin)) [nM] | EC50 (hGCGR; hGCGR EC50, nM (SEM, n), cAMP, 37° C., 0.1% bovine casein (no human serum albumin), geometric mean) [nM] | EC50 (hGCGR; hGCGR EC50, nM (SEM, n), cAMP, 37° C., 0.1% bovine casein and 1.0% human serum albumin, geometric mean (SEM, n)) [nM] | Emax (hGLP-1R; HEK293, read-out: hGLP-1R Emax, % ± SEM, cAMP, 37° C., 0.1% bovine casein and 1.0% human serum albumin) [%] | Emax (hGLP-1R; HEK293, read-out: hGLP-1R Emax, % ± SEM, cAMP, 37° C., 0.1% bovine casein, arithmetic mean) [%] | EC50 (hGLP-1R; 0.1% bovine casein (no human serum albumin), geometric mean) [nM] | EC50 (hGLP-1R; 0.1% bovine casein and 1.0% human serum albumin, geometric mean (SEM, n)) [nM] |
| --- | --- | --- | --- | --- | --- | --- | --- | --- | --- | --- | --- | --- | --- | --- | --- | --- | --- | --- |
| CC[C@H](C)[C@H](NC(=O)[C@H](CC(C)C)NC(=O)[C@](C)(Cc1ccc(O)cc1)NC(=O)[C@@H](CCC(=O)O)NC(=O)[C@@H](NC(=O)[C@H](Cc1ccccc1)NC(=O)[C@H](CCC(=O)O)NC(=O)C(C)(C)NC(=O)[C@H](CCC(N)=O)NC(=O)[C@H](C)NC(=O)[C@H](CCCCNC(=O)COCCOCCNC(=O)COCCOCCNC(=O)CC[C@H](NC(=O)CCCCCCCCCCCCC(=O)O)C(=O)O)NC(=O)[C@H](CCCN)NC(=O)[C@H](CC(=O)O)NC(=O)[C@H](CC(C)C)NC(=O)[C@](C)(CC(C)C)NC(=O)[C@@H](NC(=O)C(C)(C)NC(=O)[C@H](Cc1ccc(O)cc1)NC(=O)[C@H](CC(=O)O)NC(=O)[C@H](CO)NC(=O)[C@@H](NC(=O)[C@](C)(Cc1ccccc1F)NC(=O)[C@@H](NC(=O)CNC(=O)[C@H](CCC(=O)O)NC(=O)C(C)(C)NC(=O)[C@@H](N)Cc1ccc(O)cc1)[C@@H](C)O)[C@@H](C)O)[C@@H](C)CC)[C@@H](C)CC)C(=O)N[C@@H](CCC(=O)O)C(=O)NCC(=O)NCC(=O)N[C@@H](CCCCNC(=O)COCCOCCNC(=O)COCCOCCNC(=O)CC[C@H](NC(=O)CCCCCCCCCCCCC(=O)O)C(=O)O)C(=O)N[C@@H](CO)C(=O)N[C@@H](CO)C(=O)NCC(=O)N[C@@H](C)C(=O)N1CCC[C@H]1C(=O)N1CCC[C@H]1C(=O)N1CCC[C@H]1C(=O)N[C@@H](CO)C(N)=O [Example 50] | 0.876 | 0.0296 | 1.81 | 91.4 ± 4.2 | 94.7 ± 1.77 | 0.0168 | > 9950 | > 9950 |  |  |  |  |  |  |  |  |  |  |
| CC[C@H](C)[C@H](NC(=O)[C@H](CCCN)NC(=O)[C@H](CC(=O)O)NC(=O)[C@H](CC(C)C)NC(=O)[C@](C)(CC(C)C)NC(=O)[C@@H](NC(=O)C(C)(C)NC(=O)[C@H](Cc1ccc(O)cc1)NC(=O)[C@H](CC(=O)O)NC(=O)[C@H](CO)NC(=O)[C@@H](NC(=O)[C@](C)(Cc1ccccc1F)NC(=O)[C@@H](NC(=O)CNC(=O)[C@H](CCC(=O)O)NC(=O)C(C)(C)NC(=O)[C@@H](N)Cc1ccc(O)cc1)[C@@H](C)O)[C@@H](C)O)[C@@H](C)CC)C(=O)N[C@@H](C)C(=O)N[C@@H](CCC(N)=O)C(=O)NC(C)(C)C(=O)N[C@@H](CCCN)C(=O)N[C@@H](Cc1ccccc1)C(=O)N[C@H](C(=O)N[C@@H](CCCCNC(=O)COCCOCCNC(=O)COCCOCCNC(=O)COCCOCCNC(=O)CC[C@H](NC(=O)CCCCCCCCCOc1ccc(C(=O)O)cc1)C(=O)O)C(=O)N[C@@](C)(Cc1ccc(O)cc1)C(=O)N[C@@H](CC(C)C)C(=O)N[C@H](C(=O)N[C@@H](CCCCNC(=O)COCCOCCNC(=O)COCCOCCNC(=O)COCCOCCNC(=O)CC[C@H](NC(=O)CCCCCCCCCOc1ccc(C(=O)O)cc1)C(=O)O)C(=O)NCC(=O)NCC(=O)N1CCC[C@H]1C(=O)N[C@@H](CO)C(=O)N[C@@H](CO)C(=O)NCC(=O)N[C@@H](C)C(=O)N1CCC[C@H]1C(=O)N1CCC[C@H]1C(=O)N1CCC[C@H]1C(=O)N[C@@H](CO)C(N)=O)[C@@H](C)CC)[C@@H](C)CC [Example 481] |  |  |  |  |  |  |  |  | 0.0266 | 82.7 | 97.9 | 0.0181 | > 9950 | > 9950 | 112 | 111 | 0.279 | 6.16 |

From US20230265151A1, “GIP/GLP1 CO-AGONIST COMPOUNDS” (priority 2020, published 2023)
